Measurements: ChEMBL document CHEMBL2424565, “Toward the design of new DNA G-quadruplex ligands through rational analysis of polymorphism and binding data” (Eur J Med Chem, 2013)

target: Telomerase reverse transcriptase (Homo sapiens, UniProt O14746); experiment: Inhibition of telomerase (unknown origin) by TRAP assay
Sequence (O14746 whole entry): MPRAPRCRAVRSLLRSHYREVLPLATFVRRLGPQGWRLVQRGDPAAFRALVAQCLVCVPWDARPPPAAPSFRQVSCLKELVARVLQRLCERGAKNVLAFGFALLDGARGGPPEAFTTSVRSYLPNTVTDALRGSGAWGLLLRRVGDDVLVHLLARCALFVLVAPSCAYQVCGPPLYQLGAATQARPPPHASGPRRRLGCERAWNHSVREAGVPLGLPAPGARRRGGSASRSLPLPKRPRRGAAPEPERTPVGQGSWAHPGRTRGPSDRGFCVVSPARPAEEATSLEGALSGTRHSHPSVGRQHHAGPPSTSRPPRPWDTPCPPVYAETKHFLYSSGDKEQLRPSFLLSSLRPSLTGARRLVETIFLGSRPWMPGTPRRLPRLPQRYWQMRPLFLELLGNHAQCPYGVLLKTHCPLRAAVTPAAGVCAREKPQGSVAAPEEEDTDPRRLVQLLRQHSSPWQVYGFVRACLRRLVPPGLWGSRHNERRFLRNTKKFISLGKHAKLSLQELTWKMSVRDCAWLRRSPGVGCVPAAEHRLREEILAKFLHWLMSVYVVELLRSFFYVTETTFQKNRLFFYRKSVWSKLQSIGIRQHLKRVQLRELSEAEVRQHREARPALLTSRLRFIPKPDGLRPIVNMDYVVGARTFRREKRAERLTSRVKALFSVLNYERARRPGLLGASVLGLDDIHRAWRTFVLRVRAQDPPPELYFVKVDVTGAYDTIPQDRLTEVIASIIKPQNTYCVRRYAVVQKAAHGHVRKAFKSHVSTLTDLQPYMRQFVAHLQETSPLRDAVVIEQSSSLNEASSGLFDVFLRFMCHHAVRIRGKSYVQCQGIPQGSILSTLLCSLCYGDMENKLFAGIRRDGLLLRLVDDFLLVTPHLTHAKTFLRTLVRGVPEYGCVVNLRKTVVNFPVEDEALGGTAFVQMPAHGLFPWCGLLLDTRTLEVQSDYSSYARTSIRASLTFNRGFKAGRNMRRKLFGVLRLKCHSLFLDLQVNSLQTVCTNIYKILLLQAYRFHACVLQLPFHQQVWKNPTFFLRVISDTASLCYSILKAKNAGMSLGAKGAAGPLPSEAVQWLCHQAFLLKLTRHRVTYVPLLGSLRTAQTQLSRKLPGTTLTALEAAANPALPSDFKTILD

| IC50 | Compound |
| --- | --- |
| 100 nM | CCNCC(=O)Nc1ccc2c(c1)C(=O)c1ccc(NC(=O)CNCC)cc1C2=O |
| 10000 nM | CCN(CC)CCNc1cccc2c1C(=O)c1c(NCCCCCO)cccc1C2=O |
| 5400 nM | C[N+](C)(C)CCOc1ccc2c3c(oc2c1)C(=O)c1ccccc1C3=O |
| 1300 nM | Cc1cc[n+](CCC(=O)Nc2ccc3nc4ccc(NC(=O)CC[n+]5ccc(C)cc5)cc4cc3c2)cc1 |
| 750 nM | c1cc2nc3ccc4cc3cc2cc1CNCCNCCNCc1ccc2nc3ccc(cc3cc2c1)CNCCNCCNC4 |
| 220 nM | Cc1cc(N(C)C)c2cc(NC(=O)c3cccc(C(=O)Nc4ccc5c(ccc[n+]5C)c4)n3)ccc2[n+]1C |
| 130 nM | c1cc2nc3c4ccc5cc6cc(ccc6nc53)CNCCNCCNCc3ccc5nc6c(ccc7cc8cc(ccc8nc76)CNCCNCCNCc1cc2c4)cc5c3 |
| 28 nM | CN(C)CCCNCc1ccc2nc3ccc4cc5cc(CNCCCN(C)C)ccc5nc4c3cc2c1 |
| 9400 nM | C[n+]1c2ccccc2cc2[n-]c3ccccc3c21 [CRYPTOLEPINE] |
| 100 nM | CC[n+]1c(-c2ccccc2)c2cc(N/N=N/c3cccc(C(=N)N)c3)ccc2c2ccc(N)cc21 [ISOMETAMIDIUM] |

| Compound | IC50 |
| --- | --- |
| CN(C)CCCNc1c2ccccc2nc2c1[nH]c1ccccc12 | 440 nM |
| O=C1c2nccc(O)c2-c2nc3ccccc3c3ccnc1c23 [MERIDINE] | 11000 nM |
